Measured values reported in US9333211B2, “Phosphaplatin mediated modulation of pigment epithelial derived factor and uses thereof” (UNIVERSITY OF HOUSTON SYSTEM, priority 2013, dated 2016).
“Also recorded” adds a separate entry of the source.

Columns and labels:
PEDF protein [1] = test: PEDF protein expression by Western blot in A2780 cells; type: cell-based, human; settings: 3 hrs, 6 hrs and 12 hrs treatment
Method: Treated human ovarian cancer cells (approximately 1×10^6 cells in 60 mm^3 plates at 80-90% confluence) line with 20 μM RRD2 and 25 μM RRD4 for 3, 6 and 12 hrs was washed with PBS for three times. Total protein was extracted by treating the washed cells directly with 200 μl of RIPA (Sigma, St. Louis, Mo.) or MPER (Pierce, USA). Protein extract samples (50 μg) were separated by 12% SDS-PAGE and blotted onto polyvinylidene difluoride (PVDF) membranes. The blots were washed with TBST [10 mM Tris-HCl (pH 7.6), 150 mM NaCl, 0.1% Tween-20], blocked with 5% skim milk and 1% BSA overnight at 4 C, and incubated with the mouse anit-PEDF (Santa Cruz Biotechnology, USA) primary antibody at 1:500 dilutions in TBST with 5% skim milk and 1% BSA overnight at 4° C. The membrane was then washed TBST, and the primary antibodies were detected with secondary antibody goat anti-mouse IgG conjugated to horseradish peroxidase at 1:2500 dilution for 1.5 hours at room temperature. The blots were developed with enhanced chemiluminescence (ECL) (Pierce, USA) and exposed to X-ray film.

PEDF protein [2] = test: PEDF protein expression by immunofluorescence in A2780 cells; type: cell-based, human; settings: for PEDF protein expression by immunofluorescence: 12 hour treatment; for PEDF overexpression, time dependence: 3 to 24 hr, 20 and 25 μM
Method: A 6-well plate containing pretreated cover slips was seeded with 500-1000 cells of A2780 human ovarian cancer cell lines in 2.5 ml of RPMI 1640 media (Lonza Walkersville, Frederick, Md.) containing 2.0 mM L-glutamine and supplemented with 10% heat inactivated fetal bovine serum, FBS (Hyclone, Logan, Utah), and 0.25 units/mL recombinant human insulin (Sigma Aldrich, St. Louis, Mo.), 100 U/ml penicillin-streptomycin (Lonza Walkersville, Frederick, Md.). Those cells reaching to 80% confluency were treated with phosphaplatin compounds, RRD2 and RRD4 at various time intervals (3, 6, 12, or 24 hours). Each of the cover slip was washed with PBS three times, and the cells were fixed with freshly prepared 4% paraformaldehyde at room temperature for 20 minutes. The fixed cells were then washed with PBS for three times. These cells were permeablized and blocked with 7.5% bovine serum albumin, BSA/PBS/0.01% triton-X100 at 37° C. for 60 minutes followed by washing the cells with PBS twice. The cover slips were treated with a 1:300 dilution of Pigment epithelium-derived factor (PEDF; also known as serpin F1, SERPINF1) mouse primary antibody (Cell Signalling Technology Inc., Danvers, Mass.) in 7.5% BSA/PBS/0.01% triton for 12-15 hours 37° C. and washed with PBS for three times. The coverslips were incubated with secondary Alexa Fluor 488-conjugated anti-mouse IgG (FITC-Green) (Invitrogen, Carlsbad, Calif.) at a 1:5000 dilution in 7.5% BSA/PBS/0.01% triton-X100 for 1 hour at 37° C. in the dark. The cover-slips were then washed with PBS for another three times. In addition, some treatments were stained for beta-Actin and was stained with Phalloidin (Rhodamine) (Red) (Invitrogen, Carlsbad, Calif.) (7 ul/ml) in 7.5% BSA/PBS/0.01% triton-X100 for 1 hour at 37° C. in the dark. The moist cover-slips were then mounted onto a microscope slide with Ultracruz mounting media containing DAPI (4′,6-diamidino-2-phenylindole) (Blue) (Santa Cruz Biotechnology, Santa Cruz, Calif.) (for identifying the nucleus) and images were then collected on an Olympus FV-1000 inverted stage confocal microscope using a Plan Apo N 60×1.42NA oil immersion objective and processed by FluoView software.

ARPE19 cells = test: CellTiter-Glo Luminescent Cell Viability Assay; type: cell-based, human; settings: 100 μM, 24 hours of treatment
Method: Promega's CellTiter-Glo® Luminescent Cell Viability Assay was used to determine the number of viable cells in a culture by quantification of ATP (Promega. Madison, Wis.). Briefly, ARPE19 cells, a normal human retinal pigment epithelial cell line, were seeded in a 96 well plate with 10,000-30,000 cells per well and were allowed to attach for 24 hours. Thereafter, the cells were treated with RRD2 or RRD4 at different concentrations ranging from 1 to 100 μM for 24 hours. The detection reagent was prepared per manufactures protocol and equal volume of CellTiter-Glo® reagent was added to each well of cell culture and luminescence read with integration time set for 0.25 to 1 second. The Glo titer Viability Assay has a linear range is from 0 to 50,000 cells per well. Each concentration was done in triplicate.

HUVEC tube formation = test: HUVEC tubulogenesis assay on Matrigel; type: cell-based, human; settings: for neovascularization (tube formation) in HUVEC: after 30 min of treatment; for tube formation after treatment: HUVEC on Matrigel, 30 min treatment period
Method: Endothelial cell tubulogenesis assay was performed seeding 20,000 cells of HUVECs in 96-well plate that was pre-coated with 0.1% gelatin and 40 ul of Matrigel and treated with increasing concentration of phosphaplatin compounds, RRD2 and RRD4 in medium 199 (Lonza Walkersville, Frederick, Md.) supplemented with 20% heat-inactivated FBS (Hyclone, Logan, Utah), 100 μg/ml heparin (Sigma Aldrich, St. Louis, Mo.), 100 U/ml penicillin-streptomycin (Lonza Walkersville, Frederick, Md.) and endothelial mitogen (Biomedical Technologies, Stoughton, Mass.). In brief, Matrigel was defrosted overnight at 4° C. and the 0.1% gelatin coated 96 well plate was chilled and 40 μl of Matrigel was coated into each well. The plate was then incubated at 37° C. and 5% CO2 for 1 hour. The 96-well plate was seeded with 2×10^4 cells of HUVECs. After a 24 hour period of cell attachment each well was treated with the increasing concentration of Pt compounds overnight (8-10 hours) at 37° C. and 5% CO2. The capillary/tube formation structures formed were then recorded by an inverted microscope and quantified. Cells were counted in total visual area of 1.575 mm.
To further investigate the anti-angiogenetic behavior of RRD2 and RRD4 on endothelial cell tube formation, we treated HUVECs with different concentration of RRD2 and RRD4 (compounds A and D in FIG. 2) onto Matrigel. After 30 min of incubation with tube-like structures were monitored with an inverted microscope at 40× magnification.

PEDF gene [3] = test: PEDF gene expression, Human angiogenesis PCR array (real-time PCR); type: cell-based; settings: A2780 cells, 24 hr, ΔΔCT vs β-actin
Method: Human ovarian cancer cell lines, A2780 (Fox Chase) were cultured in 100 mm^3 plates in monolayer by using RPMI medium 1640 supplemented with 10% FBS, 2 mM glutamine, 0.25 units/mL insulin and penicillin/streptomycin (100 units/ml) in a 37° C. incubator continuously gassed with 5% CO2. The cells were treated with either RRD2 and RRD4, 5 μM and 13 μM, respectively, for 24 hrs in triplicate. The cells were collected by 0.025% trypsin-edta and were centrifuged. The pellet of cells was then resuspended in PBS and washed three times with PBS and pelleted. The total RNA isolated using the Qiagen RNeasy Mini kit (Qiagen Inc.) according to the handbook protocol. The quantity of RNA was measured spectrophotometrically at Absorbance 260 nm (1Abs260=40 ug/ml) and the quality of RNA A260:A280 ratio was measured between 1.8 to 2.0. For each experiment, 0.9 μg of total RNA was converted to cDNA using the RT^2 first strand kit (SABiosciences, Qiagen Inc.) and analyzed on the SABiosciences (Qiagen Inc.) PAHS-024C Human angiogenesis array with an Applied Biosciences 7900HT real-time PCR machine according to manufactures protocol. The threshold cycle (Ct) and baseline for each well was determined by instruments software and the resulting Ct values were analyzed using SABiosciences PCR Array Data Analysis Web-based Software (http://sabiosciences.com/pcrarraydataanalysis.php). β-Actin and/or GADPH were used as housekeeping gene for determining fold regulation.

PEDF gene [4] = test: Individual PEDF gene expression, two step qRT-PCR; type: cell-based, human; settings: A2780 cells, Single gene expression, endogenous control GADPH
Method: Individual Gene expression for PEDF was assessed by two step qRT-PCR assay. First, RNA isolation and purification was done as described above. A total of 2 μg total RNA was used to reverse-transcribe the template into single-stranded cDNA using RT^2 first strand kit (SABiosciences, Qiagen Inc.). In the second step, the synthesized cDNA was subjected to qRT-PCR RT^2 Primer Set (PEDF) used with SYBR Green real-time PCR master mix detection and endogenous control β-actin and/or GADPH (Applied Biosystems, Foster City, Calif.). All PCR reactions involving cDNA samples from treated and untreated cells were run in triplicate. Quantitative real-time PCR reactions were carried out on the StepOne PCR machine, 48 well system (Applied Biosystems, Foster City, Calif.) according to manufactures protocol. Results were generated using the StepOne software v2.1. The 2^−ΔΔCt method was used to present the relative differences in the mRNA expression levels.

SMILES	PEDF protein expression by Western Blotting (PEDF protein [1]; A2780, 20 μM)	PEDF protein expression by immunofluorescence (PEDF protein [2]; A2780, 20 μM)	PEDF overexpression, time dependence (PEDF protein [2]; human ovarian cells)	treatment time of maximum PEDF protein expression (PEDF protein [2]; immune-fluorescence experiments, human ovarian cells) [h]	effect on viability of ARPE19 retinal cells (ARPE19 cells)	inhibition of HUVEC tube formation on Matrigel (HUVEC tube formation; 0.5 μM, 30 min incubation)	neovascularization (tube formation) in HUVEC (HUVEC tube formation; 1 μM)	tube formation after treatment (HUVEC tube formation)	Fold change expression of PEDF (PEDF gene [3]; 5 uM) [fold]	Fold change expression of PEDF (PEDF gene [3]; 20 uM) [fold]	PEDF protein expression by Western Blotting (PEDF protein [1]; A2780, 25 μM)	PEDF protein expression by immunofluorescence (PEDF protein [2]; A2780, 25 μM)	Fold change expression of PEDF (PEDF gene [4]; 25 uM, 3 hr) [fold]	Fold change expression of PEDF (PEDF gene [4]; 50 uM, 24 hr) [fold]	neovascularization (tube formation) in HUVEC (HUVEC tube formation; 10 μM)	Fold change expression of PEDF (PEDF gene [3]; 13 uM) [fold]
NC1CCCCC1N.O=P1(O)[O][Pt][O]P(=O)(O)O1 [RRD2, R,R-trans-1,2-cyclohexane-diamine (dihydrogen pyrophospahto)platinum(II)]	overexpression; also recorded: upregulated	overexpression; also recorded: overexpressed or upregulated	time dependent overexpression	12	no effect	more than 85%	inhibition	No tube formation was evident	2.64	5.79	–	–	–	–	–	–
NC1CCCCC1N.O=P1(O)OP(=O)(O)[O][Pt]([OH])([OH])[O]1 [RRD4, R,R-trans-1,2-cyclohexane-diamine-trans-dihydroxo(dihydrogenpyrophospahto) platinum(IV)]	–	–	time dependent overexpression	–	no effect	–	–	No tube formation was evident	–	–	overexpression; also recorded: upregulated	overexpression; also recorded: overexpressed or upregulated	2.1	4.1	inhibition	2.05
